Data reported in patent publication US11796610B2, “Compositions as molecular tags for hyperpolarization NMR and magnetic resonance and methods of making and using same” (Duke University, priority 2018, dated 2023).
One block for each compound: values may come before it.

Columns and labels:
Assay type in all cases: physicochemical
[1] = Hyperpolarization then cycloaddition with cyclooctyne 2: enhancement and lifetime of products; conditions: methanol-d4; for signal enhancement over thermal spectra, product anti-phase (singlet) signal: tetrazine scalar order hyperpolarized at 0.3 mT, then 2 injected
From the text: For the hyperpolarization of the cycloaddition products 3a and 3b, a solution of tetrazine (1a or 1b, respectively), pyridine, and Ir catalyst in methanol-d4 was first hyperpolarized at 0.4 μT or 0.3 mT, depending on which spin order was studied (solution preparation and hyperpolarization procedure described above in Example 4). After hyperpolarization, the para-H2 gas flow was stopped and the pressure was released through the exhaust outlet, after which the injection valve (shown in FIG. 5) was quickly opened to inject a solution of cyclooctyne 2 (4.5 mM) in methanol-d4 (200 μL) (equiv of tetrazine:2=1.0:1.5). Injection was completed in less than 1 second, and the sample was shaken for 3 seconds to reach complete reaction, visually evidenced by the color change from pink (i.e., the color of the tetrazine) to transparent. The sample was then manually transferred to an 8.5 T spectrometer for product signal read out.
Upon the cycloaddition reaction, a noticeable difference in chemical shift is observed on both nitrogen atoms (i.e., N1 and N2 in 1a vs. N1′ and N2′ in 3a). […] Hyperpolarized 3a and ^15N2 are observed. FIG. 3, panels c, e, and g show representative T1 or Ts decay measurements for product 3a magnetization, 3a singlet order, and 3b singlet order, respectively. […] FIG. 3, panels d, f, and h show lifetime measurement data, exponential fit of the data, and calculated T1 or Ts values for product 3a magnetization, 3a singlet order, and 3b singlet order, respectively. In the hyperpolarization-cycloaddition experiments, para-hydrogen was bubbled into a solution of ^15N4-1,2,4,5-tetrazine 1a or 1b (1.5 mM), pyridine (1.0 mM), and Ir(COD)(IMes)Cl (0.15 mM) in methanol-d4 (400 uL), then a solution of 2 (1.5 equivalents) in methanol-d4 (200 μL) was added. The sample was held at 0.3 mT for a variable amount of time before transport to the magnet for detection.

[2] = Injection and detection with small tip angle (product relaxation lifetime); conditions: 15° tip angle, 6 consecutive spectra in the magnet, 1.6 s delay
Experimental: In addition to using a 90° pulse-acquire sequence for detection after injection, experiments using small tip angles (15° or 11.25°) were conducted to acquire a series of detection within a short time window (˜10 s), and to use that information to determine the relaxation lifetime of different spin orders of the hyperpolarized product.
FIG. 9, panel a: magnetization of ^15N-enriched tetrazine 1a is first hyperpolarized at 0.4 μT, then a solution of 2 in methanol-d4 is injected (as described in Example 4). Then, the sample is manually transferred as quickly as possible into the magnet, using 15° tip angle to acquire 6 spectra consecutively, with a 1.6 s delay between each acquisition. […] Panel b: singlet spin order of ^15N-enriched tetrazine 1a is first hyperpolarized at 0.3 mT, then a solution of 2 in methanol-d4 is injected (as described in Example 4). Then, the sample is manually transferred as quickly as possible into the magnet, using 11.25° tip angle to acquire 6 spectra consecutively, with a 1.6 s delay between each acquisition. […] Panels c-e: relaxation constant measurements of the hyperpolarized product magnetization, hyperpolarized ^15N2 gas, and hyperpolarized product singlet. The product magnetization has T1 lifetime of ˜6.9 s.

[3] = Hyperpolarization in aqueous media (3:1 methanol-d4:D2O, about 50° C.)
Experimental: One important aspect of our bioorthogonal reaction-promoted hyperpolarization approach is the ability to exploit this scheme using an aqueous solvent, which is critical for many biological reactions and would widely broaden the applicability of this strategy. […] The best results were achieved using a 3:1 methanol-d4:D2O mixture and by elevating the temperature to about 50° C. using a water bath while bubbling para-H2 through the solution.
A solution of 2 was prepared in the same 3:1 methanol-d4:D2O mixed solvent and was injected after the hyperpolarization was established for the precursor tetrazine.

[4] = SABRE-SHEATH hyperpolarization of 15N4-1,2,4,5-tetrazines in methanol-d4
Experimental: Unless otherwise described, a solution of ^15N-enriched tetrazine (1a or 1b, 1.5 mM), pyridine (1.0 mM), and Ir(IMes)(COD) Cl (0.15 mM) in methanol-d4 (400 μL) was prepared. Note: IMes=1,3-bis(2,4,6-trimethylphenyl) imidazol-2-ylidene; COD=1,5-cyclooctadiene.
The Ir catalyst was pre-activated by bubbling para-H2 through a solution of tetrazine, pyridine, and Ir catalyst (sample preparation described above) for 30 minutes. Following pre-activation, the tetrazine was hyperpolarized, either magnetization or singlet order.
To hyperpolarize magnetization, the solution was placed inside the magnetic shield, with the magnetic field adjusted to 0.4 μT (using a solenoid of 430 mm with 205 turns and a voltage of 7.5 V across 11.4 kOhms). After 3 minutes' bubbling of para-H2, the gas flow was stopped and the sample was manually transferred from the low field to an 8.5 T spectrometer for signal read out as quickly as possible. This manual transfer takes ˜8 seconds, and a 90° pulse-acquire sequence was used for read out.
To hyperpolarize singlet, the sample was placed at a magnetic field of 0.3 mT and para-H2 was bubbled through the solution for 3 minutes. As described in the above procedure, the sample was then manually transferred to an 8.5 T spectrometer as quickly as possible and detected using a 90° pulse-acquire sequence.
Depending on the magnetic field at which hyperpolarization was induced, in-phase signal (magnetization) or anti-phase signal (singlet) was observed. Enhancement values (ε) and polarization levels (p) were obtained by comparison of the hyperpolarized spectrum to a thermal reference spectrum of the respective ^15N4-1,2,4,5-tetrazine. […] Measurement at 0.3 mT. Sample as a solution of ^15N4-1,2,4,5-tetrazine (1.5 mM), pyridine (1.0 mM), and Ir(COD)(IMes)Cl (0.15 mM) in methanol-d4 (400 uL).
Hyperpolarization of 1a and 1b was examined by standard SABRE-SHEATH procedure, as reported by Theis et al. (“Direct and cost-efficient hyperpolarization of long-lived nuclear spin states on universal ^15N2-diazirine molecular tags,” Sci. Adv. 2, e1501438 (2016)). Two different hyperpolarized states for ^15N4-1,2,4,5-tetrazine 1a were observed, depending upon the chosen magnetic field at which the para-hydrogen gas is applied to the sample (FIG. 2b). At very low magnetic fields (˜0.4 μT), the ^15N spin pairs of the tetrazine are hyperpolarized in the triplet states and display in-phase signal upon detection at 8.45 T (i.e., magnetization is hyperpolarized). Conversely, at a relatively broad range of slightly elevated magnetic fields (˜0.2 mT<B<˜50 mT), anti-phase signals are observed after a 90° pulse. In this case, scalar order is hyperpolarized in the tetrazine spin pairs, associated with singlet states on ^15N-spin pairs; upon transfer to high magnetic field for detection, this scalar order is transformed into anti-aligned magnetization (I⋅S is adiabatically converted to Iz-Sz).

[5] = Dilution effect on hyperpolarization (injection of pure methanol-d4); conditions: 200 μL methanol-d4 injected; singlet order at 0.3 mT
Experimental: To observe the effect of simple dilution on hyperpolarization, pure methanol-d4 was injected into a solution of hyperpolarized tetrazine to obtain a diluted hyperpolarized signal as follows: tetrazine 1a was hyperpolarized singlet order at 0.3 mT and the spectra were acquired (as described in Example 4). The sample was again bubbled with para-H2 for 3 minutes at 0.3 mT, then the pressure was released and the injection valve was opened, after which 200 μL of methanol-d4 was quickly injected and the sample was manually transferred into the magnet to read out the signal (detailed in Example 4, but with the key difference: pure methanol-d4 used instead of a solution of 2 in methanol-d4). […] The signal observed was about half of the signal before addition.

[6] = Concentration dependence of tetrazine hyperpolarization (enhancement and lifetime); conditions: for T1 / Ts: decay at 0.3 mT
Experimental: Using serial dilution, solutions of tetrazine 1a, pyridine, and Ir catalyst in methanol-d4 (400 μL) were prepared at different concentrations, but in the same ratio of each component: • (i) 1a (7.5 mM), pyridine (5.0 mM), and Ir(IMES)(COD)Cl (0.75 mM) • (ii) 1a (3.8 mM), pyridine (2.5 mM), and Ir(IMES)(COD)Cl (0.38 mM) • (iii) 1a (1.5 mM), pyridine (1.0 mM), and Ir(IMES)(COD)Cl (0.15 mM) (i.e., default concentrations of solution used in all other experiments) • (iv) 1a (0.60 mM), pyridine (0.40 mM), and Ir(IMES)(COD)Cl (0.060 mM)
For the rest of this section, samples are referred to by the concentration of tetrazine 1a comprising the solution. As described above, either magnetization or singlet tetrazine hyperpolarization was developed following pre-activation of the catalyst. After bubbling para-H^2 through the sample, the sample was transferred to 0.3 mT for a variable period of time. Following this delay, the sample was transported to the magnet and the spectrum was immediately recorded with a 90° pulse-acquire sequence. Triplet magnetization signal was deconvoluted from singlet signal, and fitted to a single exponential decay. Results are shown below in Table 1 and graphically in FIGS. 6a and 6b.

[7] = Kinetic characterization of tetrazine/cyclooctyne reaction; conditions: 1.5 mM tetrazine, 1.5 equivalent of 2, CD3OD
Experimental: Emulating hyperpolarization conditions (below), a 1.5 mM solution of 1c (1 equivalent) in CD3OD (400 μL) was added to an NMR tube. To this solution, a 4.5 mM solution of 2 (1.5 equivalent) in CD3OD (200 μL) was added and the NMR tube was shaken vigorously. Immediately upon addition, the color of the solution changed from pink (due to the pink color of the tetrazine 1c) to colorless. As soon as the pink color completely dissipated (<2 seconds), the sample was placed into the NMR and a spectrum was acquired. The upper trace represents 1c and the lower trace represents 3c, i.e., the product of the cycloaddition reaction.

[8] = at 0.3 mT, 1.5 mM in methanol-d4
[9] = tetrazine concentration 0.60 mM
[10] = tetrazine concentration 3.75 mM
[11] = 3:1 methanol-d4:D2O, about 50° C.

SMILES: [2H]c1[15n][15n]c(-c2ccccc2)[15n][15n]1 [1b, 3-Phenyl-1,2,4,5-tetrazine-6-d-1,2,4,5-^15N4]
relaxation constant of the scalar order of the 15N spin pairs, Ts [4, 8]: 2.1 ± 0.7 min
enhancement of hyperpolarized scalar order ([4]; singlet mode, 1.5 mM in methanol-d4): 2900 fold
hyperpolarized magnetization (T1) obtainable ([4]; μT fields): not possible to create the hyperpolarized magnetization

SMILES: c1ccc(-c2[15n][15n]c[15n][15n]2)cc1 [1a, 3-Phenyl-1,2,4,5-tetrazine-1,2,4,5-^15N4]
lifetime of scalar order relative to magnetization ([4]; at 0.3 mT): about 2 times
magnetization relaxation constant T1 [4, 8]: 1.4 ± 0.1 min
relaxation constant of the scalar order of the 15N spin pairs, Ts [4, 8]: 2.7 ± 0.3 min
signal enhancement over 8.45 T thermal measurements ([4]; tetrazine 1.5 mM, pyridine 1.0 mM, Ir(COD)(IMes)Cl 0.15 mM in methanol-d4): up to 3,000 fold
hyperpolarized singlet signal after dilution relative to signal before addition [5]: about half
Singlet enhancement at 0 s delay (normalized to 1.5 mM singlet, %) [6, 9]: 96%
Z-Magnetization enhancement at 0 s delay (normalized to 1.5 mM Z-magnetization, %) [6, 9]: 130%
T1 [6, 9]: 74 s
Ts [6, 9]: 357 s
Singlet enhancement at 0 s delay (normalized to 1.5 mM singlet, %) ([6]; tetrazine concentration 1.5 mM): 100%
Z-Magnetization enhancement at 0 s delay (normalized to 1.5 mM Z-magnetization, %) ([6]; tetrazine concentration 1.5 mM): 100%
T1 ([6]; tetrazine concentration 1.5 mM): 91 s
Ts ([6]; tetrazine concentration 1.5 mM): 137 s
Singlet enhancement at 0 s delay (normalized to 1.5 mM singlet, %) [6, 10]: 77%
Z-Magnetization enhancement at 0 s delay (normalized to 1.5 mM Z-magnetization, %) [6, 10]: 86%
T1 [6, 10]: 72 s
Ts [6, 10]: 58 s
Singlet enhancement at 0 s delay (normalized to 1.5 mM singlet, %) ([6]; tetrazine concentration 7.5 mM): 56%
Z-Magnetization enhancement at 0 s delay (normalized to 1.5 mM Z-magnetization, %) ([6]; tetrazine concentration 7.5 mM): 66%
T1 ([6]; tetrazine concentration 7.5 mM): 47 s
Ts ([6]; tetrazine concentration 7.5 mM): 48 s
enhancement compared to that in neat methanol-d4 [3, 11]: about 30%
signal enhancement [3, 11]: ~900 fold

SMILES: c1ccc(-c2nncnn2)cc1 [1c, 3-Phenyl-1,2,4,5-tetrazine]
time until pink color completely dissipated on reaction with 2 [7]: < 2 s

Now from value to compound:

lifetime Ts of product ([1]; held at 0.3 mT): 24 ± 6 s
signal enhancement over thermal spectra, product anti-phase (singlet) signal [1]: 180 fold
SMILES: [2H]c1[15n][15n]c(-c2ccccc2)c2c1CC[C@H]1[C@@H](CO)[C@H]1CC2 [3b, (1-Phenyl-6,6a,7,7a,8,9-hexahydro-5H-cyclopropa[5,6]cycloocta[1,2-d]pyridazin-7-yl-4-d-2,3-^15N2)methanol]

product magnetization T1 lifetime [2]: ~6.9 s
lifetime Ts of product ([1]; held at 0.3 mT): 13 ± 2 s
magnetization lifetime T1 of product ([1]; held at 0.3 mT): 13 ± 4 s
enhancement over thermal spectra, hyperpolarized product magnetization ([1]; tetrazine magnetization hyperpolarized at 0.4 μT, then 2 added at 0.3 mT): 540 fold
signal enhancement over thermal spectra, product anti-phase (singlet) signal [1]: 140 fold
hyperpolarized signal from cycloaddition product ([3]; 3:1 CD3OD:D2O, 50° C.): detected the hyperpolarized signal
SMILES: OC[C@H]1[C@H]2CCc3c(c[15n][15n]c3-c3ccccc3)CC[C@@H]12 (racemic) [3a, (1-Phenyl-6,6a,7,7a,8,9-hexahydro-5H-cyclopropa[5,6]cycloocta[1,2-d]pyridazin-7-yl-2,3-15N2)methanol]
